Among the data in the NIST ThermoML archive (doi:10.1016/j.fluid.2018.04.016) are refractive index values, retold here.

One may read the refractive index as a measure of how strongly the sample bends light.

± gives the expanded uncertainty stated by the source.

The data set is described as follows: refractive index (Na D-line) (dimensionless). The settings on record: 101.33 kPa, Liquid, Standard Abbe refractometry.

`CC(=O)OC(C)C` [1-methylethyl ethanoate]: the refractive index (293.15 K) is recorded as 1.3779 ± 0.002.

On to `O=Cc1ccco1` [2-furaldehyde], for which the refractive index (293.15 K) is listed as 1.5264 ± 0.002.

In the case of `COc1ccccc1O` [2-methoxyphenol], the refractive index (293.15 K) came to 1.5441 ± 0.002.

With `CC(=O)CO` [acetol], the refractive index (293.15 K) is listed as 1.4262 ± 0.0023.

For the compound `CO` [methanol], the refractive index (293.15 K) is listed as 1.3293 ± 0.002.

For `Oc1ccccc1` [phenol], the refractive index (314.15 K) was 1.5405 ± 0.002.

For the compound `CCC=O` [propanal], the refractive index (293.15 K) stood at 1.3644 ± 0.002.

On to `Cc1ccccc1` [toluene], for which, under “293.15 K”, the refractive index amounted to 1.4969 ± 0.002.
